A short description of test [1]: viability of HCT116 lacking mutant beta-catenin – cell-based, human colon tumor, dose response (AID 1045).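 Also: HCT116 colon tumor cells with beta catenin knocked out; cells exposed to compound for 60 hours.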 The format is functional.
Test [2] is described as follows: cytotoxicity toward MDA-MB-231 breast cancer cells – cell-based, CellTiter-Glo luminescence, cherry-pick, cytotoxicity control for RAD54 inhibitor project, dose response (AID 651692). The format is functional. (Cellular ATP, detected with luciferase, serves as a proxy for viable cell number.)
The nature of test [3]: viability of PTEN-deleted HCT116 cells – cell-based, HCT116 PTEN knockout, dose response (AID 1047).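 Also: HCT116 colon tumor cells with PTEN knocked out; cells exposed to compound for 60 hours before readout; potency for loss of cell viability measured by luminescence.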 The format is functional.
Test [4] deals with T1, DNA repair and recombination protein RAD54-like (Homo sapiens, UniProt Q92698).
T1 sequence (Q92698 whole entry): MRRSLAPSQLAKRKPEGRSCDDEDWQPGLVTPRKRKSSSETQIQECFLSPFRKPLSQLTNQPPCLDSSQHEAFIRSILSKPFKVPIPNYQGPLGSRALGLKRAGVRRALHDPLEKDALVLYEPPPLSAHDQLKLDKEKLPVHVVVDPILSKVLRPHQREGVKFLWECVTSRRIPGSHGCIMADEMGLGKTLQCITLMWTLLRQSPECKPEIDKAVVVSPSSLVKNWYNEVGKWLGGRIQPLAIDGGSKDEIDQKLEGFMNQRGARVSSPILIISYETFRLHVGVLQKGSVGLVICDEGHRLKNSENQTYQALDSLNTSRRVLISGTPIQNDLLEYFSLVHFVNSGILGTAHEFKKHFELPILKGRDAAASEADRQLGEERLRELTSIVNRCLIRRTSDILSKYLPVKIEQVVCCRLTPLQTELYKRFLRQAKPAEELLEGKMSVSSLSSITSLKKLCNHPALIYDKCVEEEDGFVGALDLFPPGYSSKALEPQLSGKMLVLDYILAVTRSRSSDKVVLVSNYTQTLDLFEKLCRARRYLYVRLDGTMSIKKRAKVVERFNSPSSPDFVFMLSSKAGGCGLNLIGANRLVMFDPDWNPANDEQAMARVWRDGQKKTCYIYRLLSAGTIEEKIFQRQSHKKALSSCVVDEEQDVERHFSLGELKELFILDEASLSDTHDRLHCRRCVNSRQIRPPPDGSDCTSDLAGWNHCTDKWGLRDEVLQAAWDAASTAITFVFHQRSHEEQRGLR
The test can be described thus: RAD54 Holliday junction migration blockers – biochemical, fluorescence, cherry-picked samples, dose series, confirmation (AID 651657). Type of test: functional.

Test [5] is described as follows: NIH3T3 cell viability loss – ATP luminescence, mouse fibroblasts, counter-screen, dose response (AID 2010).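 Also: cells exposed to compound for about 90 hours before reading.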 Type of test: functional, cell-based.
Test [6] is described as follows: Trypanosoma cruzi growth suppression in host cells – NIH3T3 host cells, beta-gal luminescence, confirmation (AID 2044).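 Also: intracellular parasites grown in NIH/3T3 mouse fibroblasts as host cells; luminescent beta-galactosidase reporter signal from transgenic T. cruzi replicating inside host cells; inhibitors lower the luminescence signal.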 Type of test: functional, cell-based.
Test [7] is described as follows: acridine orange displacement from DNA – biochemical, fluorescence polarization, cherry-pick, artefact control for RAD54 inhibitor project, dose response (AID 651673). The format is functional.
Test [8] is described as follows: toxicity to human HepG2 hepatoma cells – cell-based, plate reader, dry powder samples, cytotoxicity control, dose response (AID 1159569).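 Also: inhibitor potency with signal falling toward the positive control level.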 The format is functional.
The subject of a further test is HEK293. The test can be described thus: viability loss in HEK293T cells – cell-based, ATP luminescence, cherry-pick samples, cytotoxicity control, dose response (AID 687005).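 Also: cells exposed to compound for 48 hours.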 Conditions: Homo sapiens. Type of test: functional.
Test [9] can be described thus: HEK293 Cytotoxicity Assay Measured in Cell-Based System Using Plate Reader - 7071-01_Inhibitor_Dose_CherryPick_Activity_Set2. The format is functional.
The next test concerns HeLa. Description: viability loss in HeLa cells – cell-based, ATP luminescence, cherry-pick samples, cytotoxicity control, dose response (AID 687004). Conditions: Homo sapiens. The format is functional.
Test [10] can be described thus: growth inhibition of PfATP4-mutant resistant parasites – NITD609-resistant line, SYBR Green, dry powder, dose response (AID 1159571).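 Also: parasites synchronized at ring stage by sorbitol before testing.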 The format is functional, cell-based.
Test [11] in a line: growth inhibition of yeast DHODH-expressing 3D7 parasites – SYBR Green, dry powder samples, dose response (AID 1159570).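 Also: parasite growth measured after 72 hours of compound exposure.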 The format is functional, cell-based.
A short description of test [12]: Dd2 malaria parasite growth inhibition potency – SYBR Green, dry powder samples, dose response (AID 1159566).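 Also: potency for growth inhibition with lower SYBR green DNA signal.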 Type of test: functional, cell-based.
The target in test [13] is SWI/SNF-related matrix-associated actin-dependent regulator of chromatin subfamily A member 2 (Homo sapiens, UniProt P51531). Description: Luminescence-based cell-based high throughput dose response assay to identify activators of the function of SWI/SNF related, matrix associated, actin dependent regulator of chromatin, subfamily a, member 2 (SMARCA2, BRM). Type of test: functional.

Test [14] can be described thus: Counterscreen for activators of the function of SWI/SNF related, matrix associated, actin dependent regulator of chromatin, subfamily a, member 2 (SMARCA2, BRM): Luminescence-based cell-based high throughput dose response assay to identify non-selective compounds using the VP16 reporter assay. Type of test: functional.
The target in test [15] is T2, ATP-dependent translocase ABCB1 (Homo sapiens, UniProt P08183). Description: P-gp JC-1 efflux blockade concentration-response – Jurkat-DNR cells, flow cytometry, set 2, dose response (AID 504569).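 Also: potency of pump inhibitors that raise cellular JC-1 green fluorescence up to the nicardipine level.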 The format is functional. Conditions: read-out: EC50_MICROM_. (In general: In flow cytometry, cells or beads pass a laser one at a time.)
For test [16], the target named is T2, ATP-dependent translocase ABCB1. Description: inhibition of BCRP-mediated JC-1 efflux – Ig-MXP3 cells, flow cytometry, set 2, dose response (AID 504566).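 Also: flow cytometry median green fluorescence of retained JC-1 dye; potency of efflux pump inhibition measured as rising substrate retention.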 The format is functional. The conditions noted are these: read-out: EC50_MICROM_.
The subject of a further test is A549. The test can be described thus: viability loss in A549 cells – cell-based, plate reader, cherry-pick samples, cytotoxicity control, dose response (AID 687028). Type of test: functional. Conditions: Homo sapiens.
In test [17] the target is 5-hydroxytryptamine receptor 2A (Mus musculus, UniProt P35363). Type of test: functional, cell-based.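 Also: CHO-K1 cells with tagged receptor and beta-arrestin; agonist potency measured as compound-induced activation of the receptor.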
For the next test, the target named is Mu-type opioid receptor (Homo sapiens, UniProt P35372). The format is functional, cell-based.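 Also: U2OS cells with beta-arrestin recruitment to OPRM1 by beta-gal complementation.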
Test [18] addresses Kappa-type opioid receptor (Homo sapiens, UniProt P41145). Type of test: functional.
The target in a further test is Beta-galactosidase (Escherichia coli, UniProt Q8VNN2). The test can be described thus: Dose response counterscreen for EBI2 assay utilizing the enzyme, b-galactosidase. Type of test: functional. For orientation: Counterscreens check selectivity or assay interference.
Test [19] deals with Tyrosine-protein phosphatase non-receptor type 22 (Homo sapiens, UniProt Q9Y2R2). Description: lymphoid phosphatase LYP inhibitors – biochemical, selectivity assay for STEP inhibitor project, dose response (AID 624241). The format is functional.
The target of test [20] is T3, SUMO-activating enzyme (Homo sapiens, UniProt Q9UBT2). The test can be described thus: blockers of UBC9-mediated SUMO conjugation – biochemical, AlphaScreen, SUMOylation inhibitor project, confirmation (AID 2018). Type of test: functional.
Test [21] addresses Tyrosine-protein phosphatase non-receptor type 5 (Homo sapiens, UniProt P54829). Description: PTPN5 enzyme inhibition – biochemical, fluorescence intensity, uHTS hits, confirmation (AID 602372). The conditions noted are these: read-out: IC50_Mean. The format is functional.
The target of test [22] is T4, Small ubiquitin-related modifier 1 (Homo sapiens, UniProt P63165). Description: SUMO1 protein-protein binding blockers, potency – biochemical, FRET, dose response (AID 624383). The format is functional. The conditions noted are these: read-out: IC50_Mean.
The target of test [23] is Dual specificity protein phosphatase 3 (Homo sapiens, UniProt P51452). Description: VHR phosphatase inhibition, dose response, selectivity assay for STEP inhibitor project, biochemical (AID 602374). Type of test: functional. The conditions noted are these: read-out: IC50_Mean.
Test [24] deals with Tyrosine-protein phosphatase non-receptor type 11 (Homo sapiens, UniProt Q06124). The test can be described thus: PTPN11 enzyme inhibitors – biochemical, selectivity assay for STEP inhibitor project, dose response (AID 602367). Conditions: read-out: IC50_Mean. Type of test: functional.
The target in test [25] is T5, Voltage-gated N-type calcium channel alpha-1B subunit/Amyloid beta A4 precursor protein-binding family A member 1 (Homo sapiens, UniProt Q00975+Q02410). Type of test: protein assay.
In test [26] the target is T5, Voltage-gated N-type calcium channel alpha-1B subunit/Amyloid beta A4 precursor protein-binding family A member 1. Type of test: protein assay. The source holds these as a separate data set.
Test [27] addresses T3, SUMO-activating enzyme. Description: blockers of SAE1/SAE2–UBC9 SUMO transfer – biochemical, HTRF, uHTS, primary screen (AID 2006). Type of test: protein-complex assay.
The target of test [28] is T4, Small ubiquitin-related modifier 1. Description: SUMO1 protein interaction blockers, potency – biochemical, fluorescence polarization, uHTS hits, dose response (AID 624382). Type of test: functional. The conditions noted are these: read-out: IC50_Mean.

Active and inactive are the calls of the source.

T4 sequence (P63165 whole entry): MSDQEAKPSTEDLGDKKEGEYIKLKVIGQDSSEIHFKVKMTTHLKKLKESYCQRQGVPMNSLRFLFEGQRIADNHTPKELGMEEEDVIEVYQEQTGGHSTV
T2 sequence (P08183 whole entry): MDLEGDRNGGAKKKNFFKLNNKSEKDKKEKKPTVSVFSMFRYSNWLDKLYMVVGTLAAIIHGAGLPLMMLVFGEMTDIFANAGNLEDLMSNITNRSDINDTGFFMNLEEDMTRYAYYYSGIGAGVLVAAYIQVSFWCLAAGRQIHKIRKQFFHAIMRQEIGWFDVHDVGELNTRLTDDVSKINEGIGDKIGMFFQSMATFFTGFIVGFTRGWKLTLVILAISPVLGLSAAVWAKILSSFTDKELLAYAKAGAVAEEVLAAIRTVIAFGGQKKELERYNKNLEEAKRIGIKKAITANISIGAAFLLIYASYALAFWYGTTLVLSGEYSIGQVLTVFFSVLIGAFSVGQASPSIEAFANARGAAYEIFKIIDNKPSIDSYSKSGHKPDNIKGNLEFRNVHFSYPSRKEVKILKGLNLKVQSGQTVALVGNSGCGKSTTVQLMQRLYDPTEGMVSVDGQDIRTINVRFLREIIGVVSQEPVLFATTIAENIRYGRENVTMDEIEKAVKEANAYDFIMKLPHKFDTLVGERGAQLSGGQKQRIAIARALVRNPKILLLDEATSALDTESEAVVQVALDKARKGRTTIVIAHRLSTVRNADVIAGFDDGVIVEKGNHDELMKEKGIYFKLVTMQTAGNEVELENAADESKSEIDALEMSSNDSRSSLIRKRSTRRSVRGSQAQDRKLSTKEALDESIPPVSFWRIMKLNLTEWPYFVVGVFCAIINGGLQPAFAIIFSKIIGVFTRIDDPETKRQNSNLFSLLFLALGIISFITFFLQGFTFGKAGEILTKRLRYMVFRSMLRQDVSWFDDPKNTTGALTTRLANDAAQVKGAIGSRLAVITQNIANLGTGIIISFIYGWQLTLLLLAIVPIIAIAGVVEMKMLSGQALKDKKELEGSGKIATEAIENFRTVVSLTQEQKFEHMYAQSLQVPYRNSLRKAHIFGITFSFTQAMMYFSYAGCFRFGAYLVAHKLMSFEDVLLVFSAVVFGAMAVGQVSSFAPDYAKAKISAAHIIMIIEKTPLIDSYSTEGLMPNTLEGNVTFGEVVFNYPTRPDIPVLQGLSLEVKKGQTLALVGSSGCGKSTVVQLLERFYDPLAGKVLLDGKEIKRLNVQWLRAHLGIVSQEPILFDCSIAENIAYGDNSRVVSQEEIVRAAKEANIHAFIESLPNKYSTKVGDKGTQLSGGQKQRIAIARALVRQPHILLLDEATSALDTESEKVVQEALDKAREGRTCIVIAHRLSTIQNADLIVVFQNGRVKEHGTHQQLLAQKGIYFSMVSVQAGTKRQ
T5 sequence (Q00975 whole entry): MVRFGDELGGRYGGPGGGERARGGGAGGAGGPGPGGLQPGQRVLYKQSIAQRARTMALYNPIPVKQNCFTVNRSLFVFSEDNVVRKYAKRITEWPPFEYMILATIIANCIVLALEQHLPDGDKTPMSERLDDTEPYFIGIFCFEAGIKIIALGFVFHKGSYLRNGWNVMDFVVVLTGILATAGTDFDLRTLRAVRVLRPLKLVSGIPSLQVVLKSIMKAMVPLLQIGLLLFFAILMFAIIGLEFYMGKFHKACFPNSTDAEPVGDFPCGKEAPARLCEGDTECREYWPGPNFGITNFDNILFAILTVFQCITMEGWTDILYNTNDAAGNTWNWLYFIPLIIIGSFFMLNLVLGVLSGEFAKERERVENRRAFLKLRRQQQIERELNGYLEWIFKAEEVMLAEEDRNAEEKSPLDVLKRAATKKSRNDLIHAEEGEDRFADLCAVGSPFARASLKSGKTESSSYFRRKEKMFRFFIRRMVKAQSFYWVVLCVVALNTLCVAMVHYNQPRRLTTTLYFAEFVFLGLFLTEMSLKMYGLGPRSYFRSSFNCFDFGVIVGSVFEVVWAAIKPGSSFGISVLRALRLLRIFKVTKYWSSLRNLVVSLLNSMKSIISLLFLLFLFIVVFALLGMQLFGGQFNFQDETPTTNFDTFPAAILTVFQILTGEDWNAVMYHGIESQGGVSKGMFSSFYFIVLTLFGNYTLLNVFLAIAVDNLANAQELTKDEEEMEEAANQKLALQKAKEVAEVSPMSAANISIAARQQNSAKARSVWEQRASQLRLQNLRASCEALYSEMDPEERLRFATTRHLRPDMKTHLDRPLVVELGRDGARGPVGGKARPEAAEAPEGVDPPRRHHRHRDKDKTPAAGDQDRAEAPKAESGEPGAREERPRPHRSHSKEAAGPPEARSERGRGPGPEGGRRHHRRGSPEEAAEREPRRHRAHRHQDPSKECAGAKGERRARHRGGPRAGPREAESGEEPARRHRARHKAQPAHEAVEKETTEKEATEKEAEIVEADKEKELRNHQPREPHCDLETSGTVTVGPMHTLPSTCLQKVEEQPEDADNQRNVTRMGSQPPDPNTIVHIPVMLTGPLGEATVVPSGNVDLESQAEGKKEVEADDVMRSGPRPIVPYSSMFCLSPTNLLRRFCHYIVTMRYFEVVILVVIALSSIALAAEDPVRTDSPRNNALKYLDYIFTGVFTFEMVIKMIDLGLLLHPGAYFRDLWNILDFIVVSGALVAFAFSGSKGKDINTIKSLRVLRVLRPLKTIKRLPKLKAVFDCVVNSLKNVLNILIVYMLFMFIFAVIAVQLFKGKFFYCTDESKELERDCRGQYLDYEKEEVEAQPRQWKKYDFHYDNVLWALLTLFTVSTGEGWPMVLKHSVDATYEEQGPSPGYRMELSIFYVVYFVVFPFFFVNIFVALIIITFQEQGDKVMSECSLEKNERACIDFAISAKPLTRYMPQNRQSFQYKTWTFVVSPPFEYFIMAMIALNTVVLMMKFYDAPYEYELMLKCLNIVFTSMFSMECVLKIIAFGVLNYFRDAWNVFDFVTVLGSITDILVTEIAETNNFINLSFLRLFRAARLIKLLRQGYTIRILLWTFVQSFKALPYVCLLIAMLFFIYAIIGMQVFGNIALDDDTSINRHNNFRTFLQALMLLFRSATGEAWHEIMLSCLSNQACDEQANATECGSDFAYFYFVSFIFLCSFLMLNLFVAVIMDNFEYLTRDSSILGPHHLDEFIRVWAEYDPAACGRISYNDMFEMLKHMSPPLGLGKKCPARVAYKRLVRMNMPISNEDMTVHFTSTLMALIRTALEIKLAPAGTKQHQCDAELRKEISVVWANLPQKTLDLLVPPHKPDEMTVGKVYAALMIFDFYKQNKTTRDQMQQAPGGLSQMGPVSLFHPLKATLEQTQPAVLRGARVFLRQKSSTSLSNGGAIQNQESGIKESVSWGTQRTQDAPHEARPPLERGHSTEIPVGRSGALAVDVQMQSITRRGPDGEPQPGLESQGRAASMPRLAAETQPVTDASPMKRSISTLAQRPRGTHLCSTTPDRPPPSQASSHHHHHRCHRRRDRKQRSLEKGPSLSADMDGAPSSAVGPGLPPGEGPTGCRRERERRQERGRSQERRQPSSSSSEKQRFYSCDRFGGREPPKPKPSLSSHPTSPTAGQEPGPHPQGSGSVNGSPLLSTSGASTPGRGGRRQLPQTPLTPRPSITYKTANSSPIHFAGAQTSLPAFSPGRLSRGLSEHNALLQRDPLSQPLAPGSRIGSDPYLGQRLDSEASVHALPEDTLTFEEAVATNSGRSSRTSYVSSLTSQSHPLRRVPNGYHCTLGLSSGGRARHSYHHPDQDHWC
T5 sequence (Q02410 whole entry): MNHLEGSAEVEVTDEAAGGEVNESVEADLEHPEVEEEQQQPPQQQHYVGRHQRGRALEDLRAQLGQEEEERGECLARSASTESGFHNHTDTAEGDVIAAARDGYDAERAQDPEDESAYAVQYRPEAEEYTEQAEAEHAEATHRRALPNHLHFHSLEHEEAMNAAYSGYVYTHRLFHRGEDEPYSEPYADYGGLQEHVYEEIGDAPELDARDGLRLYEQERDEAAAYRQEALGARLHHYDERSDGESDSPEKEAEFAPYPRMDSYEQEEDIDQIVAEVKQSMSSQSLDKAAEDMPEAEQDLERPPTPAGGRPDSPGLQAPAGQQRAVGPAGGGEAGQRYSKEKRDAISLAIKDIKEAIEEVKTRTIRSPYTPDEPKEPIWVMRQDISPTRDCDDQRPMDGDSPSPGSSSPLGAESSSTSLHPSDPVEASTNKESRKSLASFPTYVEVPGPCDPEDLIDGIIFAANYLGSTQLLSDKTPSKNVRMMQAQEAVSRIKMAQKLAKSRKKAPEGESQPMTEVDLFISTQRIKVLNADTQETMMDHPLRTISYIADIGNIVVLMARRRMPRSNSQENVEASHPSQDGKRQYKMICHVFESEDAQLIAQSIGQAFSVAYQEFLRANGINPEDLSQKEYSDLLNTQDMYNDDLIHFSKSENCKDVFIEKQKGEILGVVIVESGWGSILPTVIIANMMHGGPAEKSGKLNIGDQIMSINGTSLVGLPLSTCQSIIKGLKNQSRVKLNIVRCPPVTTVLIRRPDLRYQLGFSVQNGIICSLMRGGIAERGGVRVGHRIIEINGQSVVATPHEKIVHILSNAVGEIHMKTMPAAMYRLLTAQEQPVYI
Sequence of Kappa-type opioid receptor (P41145 whole entry): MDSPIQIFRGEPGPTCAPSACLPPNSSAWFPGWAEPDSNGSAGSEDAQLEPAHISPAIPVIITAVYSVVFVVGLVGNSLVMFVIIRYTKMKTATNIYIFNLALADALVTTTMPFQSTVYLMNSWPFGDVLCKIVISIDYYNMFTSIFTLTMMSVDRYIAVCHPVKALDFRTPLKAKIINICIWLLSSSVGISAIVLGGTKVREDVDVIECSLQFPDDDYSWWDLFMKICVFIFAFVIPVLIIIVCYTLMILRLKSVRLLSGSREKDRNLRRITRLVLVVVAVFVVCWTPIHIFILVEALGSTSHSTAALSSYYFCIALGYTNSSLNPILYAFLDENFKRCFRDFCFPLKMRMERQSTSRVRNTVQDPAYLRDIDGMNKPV

As to `COc1ccc(Nc2nc(N3CCCC3)nc3ccccc23)c(OC)c1`, the EC50 in test [1] was 1.2 µM (active); in test [3] it was 1.97 µM (active); in [5], 22.2 µM (active); in test [6], 627 nM (active). Besides, the results for the AC50 in test [2], in [4] and in [7] were 35.6 µM (active), 6.47 µM (active) and 63.3 µM (active), respectively.
Turning to `N#C[C@H]1[C@@H](c2ccc(C#CCC3CCCC3)cc2)[C@@H](CO)N1C(=O)c1ccccn1`, the AC50 in test [8] was 46.9 µM (active); in the test with HEK293, 15.7 µM (active); in test [9], 15.7 µM (active); with HeLa, 27.8 µM (active); in [10], 1.44 µM (active); in test [11], 1.73 µM (active). Moreover, the AC50 in [12] is 851 nM (active).
With `CC(=O)c1ccc(OCCCC(=O)OCc2nnc(-c3ccc(Cl)cc3)o2)cc1`, the EC50 in [13] and in test [14] was > 91.1 µM (inactive) in each case.
Take `CC(=O)N1CCN(c2cc(-c3ccccc3)nc3cc(-c4cccc(Cl)c4)nn23)CC1`: the EC50 was 4.1 µM (active) in test [15] and 5.55 µM (active) in [16].
As for `C[C@@H]1CCCCO[C@H](CN(C)Cc2ccc(Cl)c(Cl)c2)[C@H](C)CN([C@@H](C)CO)C(=O)c2cc(NC(=O)c3ccccc3)ccc2O1`, in the test with A549, the AC50 was 31.5 µM (active).
Turning to `COc1ccc(CN2CCN(c3ncccn3)CC2)c(C)c1C`, the EC50 is 263 nM (active) in test [17] and 92.5 µM (inactive) on Mu-type opioid receptor.
As to `CC1(C)CC(=O)C(=CNc2ncccc2/N=C/C2=C(O)CC(C)(C)CC2=O)C(=O)C1`, the values for the IC50 (in [18]; on Beta-galactosidase) were < 980 nM (inactive) and 1.23 µM (active), respectively.
Regarding `CCCc1cc(=O)oc2cc(OCC(=O)Nc3ccc(S(N)(=O)=O)cc3)ccc12`, the IC50 in test [19] was 31 µM (inactive); at SUMO-activating enzyme [20] it was 6.11 µM (active); in test [21], 15.5 µM (active); in test [22], 6.44 µM (active); in [23], 5.69 µM (active); in test [24], 1.15 µM (active). The IC50 in test [25] was > 50 µM (inactive); in test [26], 14.2 µM (active); at SUMO-activating enzyme [27], 11.5 µM (active); in test [28], > 66.6 µM (inactive).

A word on the AC50: it is the concentration giving half of the maximal activity seen.

These data come from ChEMBL document CHEMBL1201862, “PubChem BioAssay data set” (2004).
